Reference: PubChem BioAssay (NCI)
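In this assay, cells in 96-well plates receive the compound at five concentrations for 48 hours. Endpoints are linearly interpolated between the surrounding concentrations. The concentration for full growth arrest is given as TGI.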

Assays:
Assay in all cases: NCI tumour cell line growth inhibition, 48 h
NCI-H226 lung = system: NCI-H226 lung
NCI-H460 lung = system: NCI-H460 lung
MDA-MB-231 breast = system: MDA-MB-231 breast
A549 NSCLC = system: A549 NSCLC
RXF 393 renal = system: RXF 393 renal
NCI-H522 lung = system: NCI-H522 lung
TK-10 renal = system: TK-10 renal
SW-620 colon = system: SW-620 colon
BT-549 breast = system: BT-549 breast
SK-OV-3 ovarian = system: SK-OV-3 ovarian
SK-MEL-28 melanoma = system: SK-MEL-28 melanoma
ACHN renal = system: ACHN renal
SF-268 CNS = system: SF-268 CNS
NCI-H23 lung = system: NCI-H23 lung
786-0 renal = system: 786-0 renal
MOLT-4 leukemia = system: MOLT-4 leukemia
PC-3 prostate = system: PC-3 prostate
MDA-MB-435 = system: MDA-MB-435
OVCAR-8 ovarian = system: OVCAR-8 ovarian
CCRF-CEM leukemia = system: CCRF-CEM leukemia

SMILES	TGI (NCI-H226 lung) [µM]	TGI (NCI-H460 lung) [µM]	TGI (MDA-MB-231 breast) [µM]	TGI (A549 NSCLC) [µM]	TGI (RXF 393 renal) [µM]	TGI (NCI-H522 lung) [µM]	TGI (TK-10 renal) [µM]	TGI (SW-620 colon) [µM]	TGI (BT-549 breast) [µM]	TGI (SK-OV-3 ovarian) [µM]	TGI (SK-MEL-28 melanoma) [µM]	TGI (ACHN renal) [µM]	TGI (SF-268 CNS) [µM]	TGI (NCI-H23 lung) [µM]	TGI (786-0 renal) [µM]	TGI (MOLT-4 leukemia) [µM]	TGI (PC-3 prostate) [µM]	TGI (MDA-MB-435) [µM]	TGI (OVCAR-8 ovarian) [µM]	TGI (CCRF-CEM leukemia) [µM]
CCC(O)c1ccc(N=Cc2ccccc2O)cc1 (stereo not drawn)	> 100	> 100	> 100	> 100	> 100	> 100	> 100	> 100	> 100	> 100	> 100	> 100	> 100	> 100	> 100	> 100	> 100	> 100		
CC/C=C/C[C@H](O)[C@H]1C[C@H]2O[C@H](CC(=O)OC)C[C@H]2O1	> 100	> 100	> 100	> 100	> 100	> 100		> 100	> 100	> 100	> 100	> 100	> 100	> 100	> 100	> 100	> 100	> 100	> 100	> 100
COc1c2c(cc3c1C1(O)Cc4ccc5c(c4C[N+]1(C)CC3)OCO5)OCO2 (stereo not drawn)	> 100	> 100	> 100	> 100	> 100	> 100	> 100	> 100	> 100	> 100	> 100	> 100	> 100	> 100	> 100	> 100	> 100	> 100	> 100	> 100
CSCCCNC(=O)c1csc(-c2csc(CCNC(=O)CNC(=O)CNC(=O)OC(C)(C)C)n2)n1	> 100	> 100	> 100	> 100	> 100	> 100	> 100	> 100	> 100	> 100	> 100	> 100	> 100	> 100	> 100	> 100	> 100	> 100	> 100	> 100
COC(=O)/C=C\C(C#N)(C#N)N=Cc1sccc1C	13.2	31.4	1.93	29.6	4.22	1.67	4.12	3.88	11.1	34.1	20.1	3.8	26.1	25.3	4.34		19.8	9.84	8.69	4.19
CCN(CC)CCCNc1[nH]ncc2c(C)c3nc4ccc(OC)cc4c3cc12	1.7	4.66	2.65	2.73	3.37	0.639	9.16	1.58	3.19	5.33	2.01	5.95	3.52	1.97	2.28	0.0904	1.73	2.46	2.01	2
C=CCN(c1cc(OC)c2[nH]c(C(=O)OCC)c(C)c2c1[N+](=O)[O-])S(C)(=O)=O	25.3	> 100	33.7	> 100	45.9	43.9	> 100	> 100	60.5	> 100	> 100	69.5	> 100	> 100	> 100	28.9	38.1	64.7	> 100	> 100
COc1ccc2c3c1OC1C34CCN(C)C(C2)C4=CC(I)C1(OC)OC (stereo not drawn)	59.3	28	36	54.8	23.1	15.3	27.8	20.1	36.2	28.9	25.9	23.4	42.8	21.1	14	21.2	23.2	15.5	16.1	5.87
O=S(=O)(O)c1ccc2c(N=Nc3ccc(Cl)cc3)c(O)ccc2c1			> 100	> 100	> 100	> 100	> 100	> 100	> 100	> 100	> 100	> 100	> 100	> 100	> 100	> 100	> 100	> 100	> 100	> 100
O=C(O)c1ccc(Nc2nc3cc(C(F)(F)F)ccc3n3cccc23)cc1		38.7	49.8	> 100	58.8	53.8	> 100	> 100	> 100	> 100	> 100	> 100	> 100	> 100	65.5	67.7	93.5	> 100	> 100	> 100
Cc1ccc2oc3c(c(Br)c(Br)n3C)c(=O)c2c1	32.9		43.5	51.5	31.4	> 100	38.9	> 100	> 100		> 100	32.1	> 100	46.3	30.3	> 100	> 100	> 100	31.9	> 100
COc1nc2c(c(=O)n1C)N=C(c1ccc(Cl)cc1)CC(c1ccccc1)N2 (stereo not drawn)	45.6	28.1	53.7	> 100	55	44.9		> 100	67.5	> 100	> 100	54		69.1	> 100	49.6	> 100	> 100	> 100	69.3
NC1Cc2ccccc2OC1=O (stereo not drawn)	> 100	> 100	> 100	> 100	> 100	> 100	> 100	> 100	> 100	> 100	> 100	> 100	> 100	> 100	> 100	> 100	> 100	> 100	> 100	
c1ccc2c(c1)ccn1ccc3c4ccccc4nc-3c21	1.81		2.2	1.57	2.39	1.7	4.34	2.34	3.82	2.9	1.8	1.87	2.29	2.12	1.31	0.415	1.67	1.65	1.78	1.43
CCOC(=O)C(O)(C(=O)OCC)c1cc(C(C)(C)C)c(O)c(C(C)(C)C)c1	> 100		> 100	> 100	77.1	> 100	> 100	> 100	> 100	> 100	> 100	> 100	> 100	> 100	> 100	> 100	> 100	> 100	> 100	> 100
COc1cc2ccc1OCc1cccc(n1)COc1ccc(cc1OC)C=NCCNCCNCCN=C2	> 100	> 100	> 100	> 100	> 100	> 100	> 100	> 100	> 100	> 100		> 100	> 100	> 100	> 100	> 100	> 100	> 100	> 100	> 100
COC(=O)[C@@H]1CC(C(CN)c2cn(C(=O)OC(C)(C)C)c3ccccc23)C(=O)N1C(=O)OC(C)(C)C (stereo partly drawn)	97.8	56	58.6	> 100	46.2	95.8	> 100	> 100	> 100		31.4	> 100	> 100	> 100	> 100	37.6	80.2	50.7	55.8	34.8
N#CCN(CC#N)C1CC=CCC1N(CC#N)CC#N (stereo not drawn)	> 100	> 100	> 100	> 100	> 100	> 100	> 100	> 100	> 100	> 100		> 100	> 100	> 100	> 100	> 100	> 100	> 100	> 100	> 100
NC(=O)c1c(NC=O)ncn1C1OCC(O)C(O)C1O (stereo not drawn)	> 100	> 100	> 100	> 100	> 100	> 100	> 100	> 100	> 100	> 100		> 100	> 100	> 100	> 100	> 100	> 100	> 100	> 100	> 100
C[N+]1(CCC[N+]2(C)CC3C4C=CC(CC4)C3C2)CCOCC1 (stereo not drawn)	> 100		> 100	> 100	> 100	> 100	> 100	> 100	> 100	> 100	> 100	> 100	> 100	> 100	> 100	> 100	> 100	> 100	> 100	> 100
Cc1ccc(O)c(C2=CC(c3cccc(Br)c3)SC(N)=N2)c1 (stereo not drawn)	71.5	49.8	64	88.3	47.1	37.7	46.1	> 100	83.6	75.6		52.2	88.9	76.3	74.4	63.4	> 100	37.2	> 100	81.7
CC(C)(C)C1=CC(=C2C=Cc3ccccc3O2)C=C(C(C)(C)C)C1=O	25.6	4.04	11.1	26.2	7.71	17.8	16.5	13.9	22.1	> 42.4	22.2	19.2	> 34.3	30.8	9.55	> 21.3	16.2	5.11	> 51.8	6.12
C=CCc1cc(C(Cc2ccccc2)NC(C)C)cc(OCc2ccccc2)c1OCc1ccccc1 (stereo not drawn)	36.2	28.5	28.3	30.5	30.4	28.8	30.8	32.5	31.4	27	30.2	30.5	30	33.8	30.7	26.7	28.8	29.2	31.5	33.5
Nc1ccc(-c2nc3ccccc3s2)cc1C#Cc1ccccc1	49.2	35.1	47.8	49	34.6	34.2	30.3	34.7	34.7	60.7		38.5	54.2	52.6	32.3	> 100	45.4	36	42.4	93.2
S=C(N1CCN(c2cccc(Cl)c2)CC1)N1CCN(c2cccc(Cl)c2)CC1	88.4		58.8	> 100	> 100	> 100	> 100	> 100	> 100	> 100	> 100	> 100	> 100	> 100	> 100	64.1	> 100	> 100	> 100	27.8
